Measured values as given in US10034931B2, “Use of EGFR pathway inhibitors to increase immune responses to antigens” (Emory University, priority 2013, dated 2018).

What was measured:
CCL2 = assay: Steady state mRNA levels of immune genes in skin after topical application; assay type: in vivo, Balb/c mice; details: topical application to dorsal skin, six hour time point
Text: The topical application of the irreversible EGFR inhibitor PD168393 can enhance the elicitation phase of contact hypersensitivity in a manner that is associated with increases in several chemoattractant chemokines. During EGFRI therapy there are changes in immune gene expression even in clinically normal (non-inflamed) skin). To determine how EGFR inhibition alters immune gene expression, PD168393 or vehicle (10% DMSO in ethanol) was applied to the backs of Balb/c mice (5 mice per group) and steady state mRNA levels of several genes were measured. A six hour time point was selected for these experiments. […] This increase was observed independent of the reference housekeeping gene used in the analysis. In contrast, steady state levels of the housekeeping genes and several other genes analyzed were unchanged by topical PD168393 at this time point. These studies indicate that a single application of an EGFRI to mouse skin can alter the expression of chemokines that are known to influence immune cell trafficking into the skin.

[1] = tested on: A/California/07/09 (H1N1) influenza virus; assay: Hemagglutination inhibition (HAI) titers in sera of vaccinated mice; assay type: in vivo, BALB/c mice
[2] = tested on: A/California/07/2009 virus; assay: Neutralizing antibody titers by microneutralization assay in sera of vaccinated mice; assay type: in vivo, BALB/c mice; details: by week 8; vs vehicle-vaccinated and vaccine alone
[3] = tested on: influenza-specific binding IgG antibodies; assay: Virus-specific (total vaccine-reactive) antibody levels by ELISA; assay type: in vivo, BALB/c mice; details: between the three groups (EGFRI, vehicle, vaccine only)
[4] = tested on: vaccine-specific IgM-secreting cells and IgG-secreting cells; assay: Vaccine-specific antibody secreting cells (ELISPOT) in skin draining lymph nodes and spleen; assay type: in vivo, BALB/c mice
[5] = tested on: IFN-γ-producing and IL-4-producing cells; assay: IL-4 and IFN-γ secreting cells (ELISPOT) in skin-draining lymph nodes and spleens; assay type: in vivo, BALB/c mice
contact hypersensitivity = details: topical application; associated with increases in several chemoattractant chemokines; cited from earlier work

SMILES: C=CC(=O)Nc1ccc2ncnc(Nc3cccc(Br)c3)c2c1 [PD168393, N-[4-(3-bromoanilino)quinazolin-6-yl]prop-2-enamide]
- steady state levels of the housekeeping genes and several other genes (CCL2): unchanged
- steady state mRNA levels of the chemokine CCL2 (CCL2; vs vehicle (10% DMSO in ethanol)): statistically significant increase
- HAI titers, difference to vaccine alone or vehicle-vaccine group ([1]; as early as week 4): two-fold higher
- functionally relevant humoral immune responses ([1]; single application at site just prior to intradermal vaccination, vs vehicle (10% DMSO in ethanol)-treated mice): significantly higher
- HAI titers ([1]; single topical application at site just prior to intradermal vaccination, vs vehicle-vaccine and vaccine only): significantly higher
- NT titers [2]: increased relative to both control groups
- total vaccine-reactive antibodies [3]: no differences
- numbers of IgG-secreting cells ([4]; skin draining lymph nodes, 1 and 2 weeks post vaccination, vs vehicle-vaccinated mice): significantly higher
- number of IgG secreting cells ([4]; skin draining lymph nodes, day 14, vs vehicle-vaccinated mice): twice as high
- number of IgM secreting cells ([4]; skin draining lymph nodes, seven days post vaccination, vs vehicle-vaccinated mice): double
- number of cells producing influenza-specific antibodies ([4]; skin-draining lymph nodes, topical treatment prior to vaccination): increase
- cellular responses in the spleen (antibody secreting cells) ([4]; spleen, EGFRI- vs vehicle-vaccinated mice): without any notable differences
- numbers of activated influenza-specific immune cells as defined by IFN-γ and IL-4 secretion ([5]; one week post immunization, vs vehicle-vaccinated mice): higher numbers
- numbers of IL-4 secreting cells ([5]; skin-draining lymph nodes, one week post immunization, vs vehicle-vaccinated mice): 3 fold
- numbers of IFN-γ secreting cells ([5]; skin-draining lymph nodes, one week post-vaccination, vs vaccine-vehicle cohort): 4 fold
- levels of IL-4 secreting lymphocytes ([5]; skin-draining lymph nodes, two weeks post immunization, vs vehicle): significantly higher
- difference in numbers of IFN-γ secreting cells ([5]; skin-draining lymph nodes, two weeks post vaccination, vs vaccine-vehicle cohort): absent
- numbers of IL-4 and IFN-γ secreting cells in spleens ([5]; spleens, EGFRI- vs vehicle-vaccinated mice): no differences
- elicitation phase of contact hypersensitivity (contact hypersensitivity): enhance
